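1) Cells in 96-well plates. 2) Compound, 48 h, 5 concentrations. 3) Linear interpolation between surrounding doses. 4) Unreached endpoint = highest concentration. Abbreviation: GI50, concentration required for 50% inhibition of growth. At the TGI there is no net growth.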
Assays:
Test in all cases: inhibition of tumour cell growth, NCI panel, 48 h
[1] = system: 786-0 renal
[2] = system: A549 NSCLC
[3] = system: BT-549 breast
[4] = system: HCT-15 colon
[5] = system: MCF7 breast
[6] = system: SF-539 CNS
[7] = system: SNB-19 CNS
[8] = system: T-47D breast
[9] = system: UACC-257 melanoma
[10] = system: TK-10 renal

Row | SMILES | TGI [1] [µM] | TGI [2] [µM] | TGI [3] [µM] | TGI [4] [µM] | TGI [5] [µM] | TGI [6] [µM] | TGI [7] [µM] | TGI [8] [µM] | TGI [9] [µM] | TGI [10] [µM] | GI50 [2] [µM] | GI50 [4] [µM] | GI50 [6] [µM] | GI50 [7] [µM] | GI50 [8] [µM] | GI50 [10] [µM] | GI50 [9] [µM] | GI50 [3] [µM] | GI50 [5] [µM]
1 | Cc1cc2c(cc1-c1cc3c(cc1C)C(C(C)C)=C(O)C(=O)/C3=C\Nc1nc(-c3ccccc3)cs1)/C(=C/Nc1nc(-c3ccccc3)cs1)C(=O)C(O)=C2C(C)C | > 100 | 57.2 | 89 | 58.4 | 41.1 | 43.9 | 37.9 | > 100 | 47 | – | – | – | – | – | – | – | – | – | –
2 | COc1cc(Oc2nc3ccccc3nc2C(=O)O)cc(OC)c1OC | > 100 | > 100 | > 100 | > 100 | – | – | > 100 | > 100 | > 100 | > 100 | – | – | – | – | – | – | – | – | –
3 | COc1cc(C2c3cc4c(cc3C(O)C3CCC(=O)N23)OCO4)cc(OC)c1OC (stereo unspecified) | > 100 | > 100 | 66.1 | > 100 | 81 | – | > 100 | > 100 | > 100 | > 100 | – | – | – | – | – | – | – | – | –
4 | CCN(CC)CCCCCCCCNc1c2ccc(Cl)cc2nc2ccc(OC)cc12 | – | 3.62 | – | 2.46 | – | 2.87 | 4.63 | 6.91 | 3.57 | 4.24 | 1.56 | 0.966 | 1.42 | 1.81 | 2.82 | 1.83 | 1.97 | – | –
5 | O=C1NN=C(c2ccc(Cl)cc2)CC1C1C(=O)N(c2ccccc2)N=C1c1ccccc1 (stereo unspecified) | 63.2 | > 100 | 54.4 | > 100 | > 100 | 66.8 | > 100 | > 100 | – | > 100 | – | – | – | – | – | – | – | – | –
6 | Cc1cc(O)c(C(C)C)cc1NC(=O)Nc1cccc2ccccc12 | 34.6 | 45.4 | 36.1 | 69.1 | – | – | 30.2 | > 100 | 33.4 | 32.5 | – | – | – | – | – | – | – | – | –
7 | C(=N\Nc1ncc(-c2cc3cc4c(cc3o2)OCO4)s1)/c1c[nH]c2ccccc12 | – | 3.1 | 7.55 | 3.25 | 5.39 | 1.98 | 6.25 | > 100 | 7.77 | 5.59 | 0.487 | 1.14 | 0.669 | 1.57 | 2.09 | 2.4 | 2.57 | 1.32 | 0.566
8 | Cc1ccccc1N=C(N)NC#N | > 100 | > 100 | > 100 | > 100 | > 100 | > 100 | > 100 | – | > 100 | > 100 | – | – | – | – | – | – | – | – | –
9 | CC(=O)NC1(C)CCC(C(C)(C)NC(C)=O)CC1 (stereo unspecified) | > 100 | > 100 | > 100 | > 100 | > 100 | > 100 | > 100 | – | > 100 | > 100 | – | – | – | – | – | – | – | – | –
10 | CC1(C)O[C@H](C(=O)O)[C@@H](C(=O)O)O1 | > 100 | > 100 | – | > 100 | > 100 | > 100 | > 100 | > 100 | > 100 | > 100 | – | – | – | – | – | – | – | – | –
11 | CCSc1ncnc2c(C3OC(CO)C(O)C3O)nsc12 (stereo unspecified) | – | > 100 | – | > 100 | > 100 | > 100 | – | > 100 | – | – | – | – | – | – | – | – | – | – | –
12 | C/C(O)=C/c1nc2ccccc2nc1/C=C(/C)O | 45.8 | 51.3 | > 100 | > 100 | – | 99.3 | > 100 | 36.9 | 41 | 42.2 | – | – | – | – | – | – | – | – | –
13 | CCOC(=O)C1=CN=C2C(=O)N(c3ccccc3)N(C)C2(C)C1=N (stereo unspecified) | > 100 | > 100 | > 100 | > 100 | > 100 | > 100 | > 100 | – | > 100 | > 100 | – | – | – | – | – | – | – | – | –
14 | COC(=O)C1=C(C)N2CCCOC2(C)C(C(=O)OC)C1c1cccc(Cl)c1 (stereo unspecified) | – | > 100 | – | – | – | 93.8 | > 100 | – | 57.1 | > 100 | – | – | – | – | – | – | – | – | –
15 | O=C1C=Cc2c(Cl)sc(Cl)c21 | 2.44 | > 90.6 | 7.92 | 3.14 | 3.9 | – | 19.8 | > 22.7 | 4.78 | 4.39 | – | – | – | – | – | – | – | – | –
16 | c1ccc2c(c1)c1c(n2CCOCCN2CCCCC2)CCCC1 | 26.4 | 30.1 | – | 27.7 | 27.6 | 31.7 | – | 35.2 | – | 27.3 | – | – | – | – | – | – | – | – | –
17 | Nn1c(Cc2ccc(Cl)cc2)n[nH]c1=O | > 100 | > 100 | – | > 100 | – | > 100 | > 100 | > 100 | > 100 | > 100 | – | – | – | – | – | – | – | – | –
18 | CC(C)(C)C#C[P+](c1ccccc1)(c1ccccc1)c1ccccc1 | 1.51 | 1.91 | – | 5.9 | – | 1.39 | 1.51 | – | 2.07 | 3.48 | – | – | – | – | – | – | – | – | –
19 | Cc1nc2c(cc1C(=O)NN)c(=O)n(C)c(=O)n2C | > 100 | > 100 | > 100 | > 100 | > 100 | – | > 100 | > 100 | > 100 | > 100 | – | – | – | – | – | – | – | – | –
20 | COc1cc2c(cc1OC)C1CN3C(=O)CCC3C(O)C1c1cc(OC)c(OC)cc1-2 (stereo unspecified) | > 100 | > 100 | > 100 | > 100 | > 100 | – | > 100 | > 100 | > 100 | > 100 | – | – | – | – | – | – | – | – | –
21 | CCCC1NC(C#N)(C#N)C(CCC)NC1(C#N)C#N (stereo unspecified) | > 33.5 | > 100 | > 27 | > 39.2 | > 100 | – | > 100 | > 71.5 | > 100 | > 100 | – | – | – | – | – | – | – | – | –
22 | COC12C=C/C(=C(/C(=O)OCc3ccncn3)C(=O)CCCCCCCCC3(OC)C=C/C(=C(/C(=O)OCc4ccncn4)C(=O)CCCCCCCC1)O3)O2 | – | 1.49 | 0.78 | 1.12 | 11 | 2.66 | 17.1 | 25.7 | 0.882 | 2.4 | 0.363 | 0.278 | 0.354 | 0.509 | 0.28 | 0.395 | 0.261 | 0.225 | 0.314

From PubChem BioAssay (NCI)
